Experiment [1] deals with symmetric dimethylation of arginine (SDMA) of PRMT5 substrates in MCF-7 cells. Kind of experiment: PRMT5 Cell Target Engagement (TE) Assay. The experiment is classed as cell-based. The note with it: Homo sapiens, MCF7, 72 h, 3 days treatment, SDMA high content imaging. In outline: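 Readout is single-cell nuclear symmetric-dimethylarginine immunofluorescence (Alexa488), normalized to DMSO-treated cells. Compounds were applied to MCF-7 cells for 3 days at 37 °C, top concentration 10000 nM in 1:3 steps over ten points; curves fitted with 4-parameter robust fit.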

For experiment [2], the target named is T1, Full-length (FL)-PRMT5-MEP50 enzyme complex (Homo sapiens, UniProt O14744).
T1 construct: Full-length (FL)-PRMT5-MEP50 enzyme complex (recombinant proteins from baculovirus-transfected Sf21 cells: FL-PRMT5; MW=73837 kDa and FL-MEP50; MW=38614); made in house; host or cells: baculovirus-transfected Sf21 cells
As to the kind of experiment: PRMT5-MEP50 Enzyme Methylation Assay (Version A). Type of experiment: biochemical. In outline: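 Compound was pre-incubated with enzyme for 60 min, then reacted 150 min at 37° C. at final 1.0 nM PRMT5-MEP50, 15 μM SAM and 75 nM biotinylated H4R3(Me1) peptide, in 50 mM Bicine pH 8.0 with 1% DMSO. SAMDI mass-spectrometric readout of Me1→Me2 conversion. EC50 from 4- or 7-parameter regression.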

The mark [3] stands for this setting: second value of 7 parameter biphasic fit, read-out: Enzyme Methylation Assay Version A (EC50 2).
Where [4] appears, read: single EC50 = 4 parameter single site sigmoidal fit, EC50 1 = first value of 7 parameter biphasic fit, read-out: Enzyme Methylation Assay Version A (EC50 or EC50 1).

Like-named read-outs stand apart in the source and are kept apart here.

T1 sequence (O14744 whole entry): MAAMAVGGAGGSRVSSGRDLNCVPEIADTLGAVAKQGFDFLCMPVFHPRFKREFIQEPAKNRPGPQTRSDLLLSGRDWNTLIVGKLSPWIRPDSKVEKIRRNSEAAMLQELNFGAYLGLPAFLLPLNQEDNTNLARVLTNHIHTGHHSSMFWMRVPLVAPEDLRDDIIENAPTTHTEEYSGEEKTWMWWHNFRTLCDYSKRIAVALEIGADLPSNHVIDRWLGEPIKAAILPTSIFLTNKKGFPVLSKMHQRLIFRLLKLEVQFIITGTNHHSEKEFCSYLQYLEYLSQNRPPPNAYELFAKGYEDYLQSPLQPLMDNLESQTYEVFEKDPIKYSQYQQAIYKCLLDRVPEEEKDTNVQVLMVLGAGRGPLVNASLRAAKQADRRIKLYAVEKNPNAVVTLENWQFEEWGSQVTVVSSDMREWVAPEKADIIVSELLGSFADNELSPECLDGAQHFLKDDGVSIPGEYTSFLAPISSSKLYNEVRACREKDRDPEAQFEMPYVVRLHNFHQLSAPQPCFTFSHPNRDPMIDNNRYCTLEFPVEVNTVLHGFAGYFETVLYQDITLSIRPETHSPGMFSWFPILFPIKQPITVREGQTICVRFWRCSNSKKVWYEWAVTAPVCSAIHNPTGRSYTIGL
T1 sequence (Q9BQA1 whole entry partner): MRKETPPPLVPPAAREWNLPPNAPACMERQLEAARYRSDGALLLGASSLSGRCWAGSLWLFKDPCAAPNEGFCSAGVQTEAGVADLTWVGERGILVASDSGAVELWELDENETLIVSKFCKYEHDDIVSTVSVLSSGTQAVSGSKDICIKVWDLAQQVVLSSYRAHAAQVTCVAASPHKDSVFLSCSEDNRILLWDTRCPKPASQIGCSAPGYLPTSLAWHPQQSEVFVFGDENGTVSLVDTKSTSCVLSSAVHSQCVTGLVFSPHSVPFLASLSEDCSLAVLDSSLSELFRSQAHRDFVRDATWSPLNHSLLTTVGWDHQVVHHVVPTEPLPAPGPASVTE

With `Cc1ccc2nc(C(=O)N3CC[C@]4(Cc5ccccc5CN4)[C@H](O)C3)cn2c1` [Example 40, ((3R,3’R)-3′-hydroxy-1,4-dihydro-2H-spiro[isoquinoline-3,4′-piperidin]-1′-yl)(6-methylimidazo[2,2-a]pyridin-2-yl)methanone], the figures for the half-maximal effective concentration (EC50) in experiment [1], in experiment [2] (setting [3]) and in experiment [2] (setting [4]) were 8.7 nM, 468 nM and 0.814 nM, respectively.

As for `O=C(c1cn2cc(C(F)F)ccc2n1)N1CC[C@]2(Cc3ccccc3CN2)[C@H](O)C1` [Example 41, (6-(difluoromethyl)imidazo[1,2-a]pyridin-2-yl)((3R,3’R)-3′-hydroxy-1,4-dihydro-2H-spiro[isoquinoline-3,4′-piperidin]-1′-yl)methanone], the values for the EC50 in experiment [1], in experiment [2] (setting [3]) and in experiment [2] (setting [4]) were 2.44 nM, 209 nM and 0.513 nM, respectively.

On to `O=C(c1cn2cc(Br)ncc2n1)N1CC[C@]2(Cc3ccccc3CN2)[C@H](O)C1` [Example 42, (6-bromoimidazo[1,2-a]pyrazin-2-yl)((3R,3’R)-3′-hydroxy-1,4-dihydro-2H-spiro[isoquinoline-3,4′-piperidin]-1′-yl)methanone], for which the EC50 (as a rule, the concentration giving half of the maximal effect) in experiment [1] came out at 24.9 nM; in experiment [2] (setting [3]), 3240 nM; in experiment [2] (setting [4]), 5.35 nM.

In the case of `COc1ccc2nc(C(=O)N3CC[C@]4(Cc5ccccc5CN4)[C@H](O)C3)cn2c1` [Example 43, ((3R,3’R)-3′-hydroxy-1,4-dihydro-2H-spiro[isoquinoline-3,4′-piperidin]-1′-yl)(6-methoxyimidazo[1,2-a]pyridin-2-yl)methanone], the EC50 in experiment [1] was 19.1 nM; in experiment [2] (setting [3]), 1440 nM; in experiment [2] (setting [4]), 3.22 nM.

Take `Cc1cc(Br)cn2cc(C(=O)N3CC[C@]4(Cc5ccccc5CN4)[C@H](O)C3)nc12` [Example 44, (6-bromo-8-methylimidazo[1,2-a]pyridin-2-yl)((3R,3’R)-3′-hydroxy-1,4-dihydro-2H-spiro[isoquinoline-3,4′-piperidin]-1′-yl)methanone]: the concentration giving a half-maximal response (EC50) stood at 1.32 nM in experiment [1], 42.1 nM in experiment [2] (setting [3]) and 0.687 nM in experiment [2] (setting [4]).

As to `O=C(c1ccn(CC(F)(F)F)c(=O)c1)N1CC[C@]2(Cc3ccccc3CN2)[C@H](O)C1` [Example 45, 4-((3R,3′R)-3′-hydroxy-1,4-dihydro-2H-spiro[isoquinoline-3,4′-piperidine]-1′-carbonyl)-1-(2,2,2-trifluoroethyl)pyridin-2(1H)-one], the concentration giving a half-maximal response (EC50) in experiment [1] was 224 nM; in experiment [2] (setting [3]), 16000 nM; in experiment [2] (setting [4]), 70 nM.

In the case of `CC(C)(O)c1cc(Br)cn2cc(C(=O)N3CC[C@]4(Cc5ccccc5CN4)[C@H](O)C3)nc12` [Example 47, (6-bromo-8-(2-hydroxypropan-2-yl)imidazo[1,2-a]pyridin-2-yl)((3R,3’R)-3′-hydroxy-1,4-dihydro-2H-spiro[isoquinoline-3,4′-piperidin]-1′-yl)methanone], the EC50 in experiment [1] was 9.81 nM; in experiment [2] (setting [3]), 403 nM; in experiment [2] (setting [4]), 0.421 nM.

As to `CC(C)(O)c1cc(Br)cn2cc(C(=O)N3CCC4(Cc5ccccc5CN4)C(O)C3)nc12` (stereo not drawn) [Example 48, A diastereomer of [6-bromo-8-(2-hydroxy-2-propanyl)imidazo[1,2-a]pyridin-2-yl](3′-hydroxy-1,4-dihydro-1′H,2H-spiro[isoquinoline-3,4′-piperidin]-1′-yl)methanone], the EC50 was found to be 246 nM in experiment [1], 2980 nM in experiment [2] (setting [3]) and 4.91 nM in experiment [2] (setting [4]).

On to `Cc1cc(Br)c2nc(C(=O)N3CC[C@]4(Cc5ccccc5CN4)[C@H](O)C3)cn2c1` [Example 49, (8-bromo-6-methylimidazo[1,2-a]pyridin-2-yl)((3R,3’R)-3′-hydroxy-1,4-dihydro-2H-spiro[isoquinoline-3,4′-piperidin]-1′-yl)methanone], for which the EC50 was 3.88 nM in experiment [1], 347 nM in experiment [2] (setting [3]) and 1.15 nM in experiment [2] (setting [4]).

In the case of `COc1cc(Br)cn2cc(C(=O)N3CC[C@]4(Cc5ccccc5CN4)[C@H](O)C3)nc12` [Example 50, (6-bromo-8-methoxyimidazo[1,2-a]pyridin-2-yl)((3R,3’R)-3′-hydroxy-1,4-dihydro-2H-spiro[isoquinoline-3,4′-piperidin]-1′-yl)methanone], the EC50 in experiment [1] was 1.48 nM; in experiment [2] (setting [3]), 62.4 nM; in experiment [2] (setting [4]) it was 0.38 nM.

Regarding `CNC(=O)c1cc(Br)cn2cc(C(=O)N3CC[C@]4(Cc5ccccc5CN4)[C@H](O)C3)nc12` [Example 51, 6-bromo-2-((3R,3’R)-3′-hydroxy-1,4-dihydro-2H-spiro[isoquinoline-3,4′-piperidine]-1′-carbonyl)-N-methylimidazo[1,2-a]pyridine-8-carboxamide], the EC50 in experiment [1] was found to be 13.7 nM; in experiment [2] (setting [3]) it was 1500 nM; in experiment [2] (setting [4]) it was 7.02 nM.

Consider `O=C(c1cn2c(n1)CCC(C(F)(F)F)C2)N1CC[C@]2(Cc3ccccc3CN2)[C@H](O)C1` (stereo partly drawn) [Example 54, [(3R,3′R)-3′-hydroxy-1,4-dihydro-1′H,2H-spiro[isoquinoline-3,4′-piperidin]-1′-yl][6-(trifluoromethyl)-5,6,7,8-tetrahydroimidazo[1,2-a]pyridin-2-yl]methanone], for which the EC50 in experiment [1] was found to be 169 nM; in experiment [2] (setting [3]), 2660 nM; in experiment [2] (setting [4]) it was 8.01 nM.

Turning to `O=C(c1cn2cc(Br)cc(C(F)(F)F)c2n1)N1CC[C@]2(Cc3ccccc3CN2)[C@H](O)C1` [Example 55, [6-bromo-8-(trifluoromethyl)imidazo[1,2-a]pyridin-2-yl][(3R,3′R)-3′-hydroxy-1,4-dihydro-1′H,2H-spiro[isoquinoline-3,4′-piperidin]-1′-yl]methanone], the EC50 in experiment [1] was determined as 1.17 nM; in experiment [2] (setting [3]), 170 nM; in experiment [2] (setting [4]), 0.817 nM.

As to `O=C(c1cnc2ncc(Cl)cn12)N1CC[C@]2(Cc3ccccc3CN2)[C@H](O)C1` [Example 56, (6-chloroimidazo[1,2-a]pyrimidin-3-yl)[(3R,3′R)-3′-hydroxy-1,4-dihydro-1′H,2H-spiro[isoquinoline-3,4′-piperidin]-1′-yl]methanone], the results for the EC50 in experiment [1], in experiment [2] (setting [3]) and in experiment [2] (setting [4]) were 82.1 nM, 10000 nM and 12.4 nM, respectively.

With `O=C(c1ccn2c(Br)cnc2n1)N1CC[C@]2(Cc3ccccc3CN2)[C@H](O)C1` [Example 57, (3-bromoimidazo[1,2-a]pyrimidin-7-yl)[(3R,3′R)-3′-hydroxy-1,4-dihydro-1′H,2H-spiro[isoquinoline-3,4′-piperidin]-1′-yl]methanone], the EC50 in experiment [1] was 2190 nM; in experiment [2] (setting [3]), 55000 nM; in experiment [2] (setting [4]), 63.1 nM.

For `O=C(c1nn2cc(Br)cnc2c1Cl)N1CC[C@]2(Cc3ccccc3CN2)[C@H](O)C1` [Example 58, (6-bromo-3-chloropyrazolo[1,5-a]pyrimidin-2-yl)[(3R,3′R)-3′-hydroxy-1,4-dihydro-1′H,2H-spiro[isoquinoline-3,4′-piperidin]-1′-yl]methanone], the values for the half-maximal effective concentration (EC50) in experiment [1], in experiment [2] (setting [3]) and in experiment [2] (setting [4]) were 10.1 nM, 313 nM and 0.715 nM, respectively.

As for `CN1CCn2cc(C(=O)N3CC[C@]4(Cc5ccccc5CN4)[C@H](O)C3)nc2C1` [Example 59, [(3R,3′R)-3′-hydroxy-1,4-dihydro-1′H,2H-spiro[isoquinoline-3,4′-piperidin]-1′-yl](7-methyl-5,6,7,8-tetrahydroimidazo[1,2-a]pyrazin-2-yl)methanone], the EC50 in experiment [1] amounted to 6100 nM; in experiment [2] (setting [4]) it was 20.2 nM.

Values taken from US12441730B2, “PRMT5 inhibitors” (Merck Sharp & Dohme LLC, priority 2019, dated 2025).
